This assay has as its target sigma receptors. Briefly: sigma receptor binding, [3H]di(2-tolyl)-guanidine (DTG) assay, guinea pig brain membranes. As to conditions: [3H]DTG approximately 4 nM; male Hartley guinea pig brain membranes; 25° C. for 90 min; nonspecific binding 10 μM haloperidol. Here is the method:
Brain tissue was prepared from male Hartley guinea pigs (Hazelton Labs, Denver, Pa.) which were anesthetized with CO2 and sacrificed by decapitation. All animal care and use procedures were in accord with the "Guide for the Care and Use of Laboratory Animals" (NIH Publ. No. 86-23, 1985). Homogenization was performed in 10 volumes (wt/vol) of 0.32M sucrose with a Brinkmann Polytron at setting 5, 30 sec. The homogenate was centrifuged at 900×g for 10 min at 4° C., and the supernatant was collected and centrifuged at 22,000×g for 20 min at 4° C. The pellet was resuspended in 10 volumes of Tris-HCl buffer (50 mM, pH 7.4), incubated at 37° C. for 30 min and centrifuged at 22,000×g for 20 min at 4° C. Following this, the pellet was resuspended in Tris buffer and frozen in 5-10 mL aliquots corresponding to a tissue concentration of 100 mg/mL at -70° C. Binding characteristics of the membranes were stable for at least one month when stored at -70° C.
On the day of the assay, membrane aliquots were thawed, resuspended in fresh Tris buffer and stored on ice until use. Each assay tube contained 100 μL of [^3 H](+)pentazocine at a final concentration of approximately 0.5 nM, [^3 H]di(2-tolyl)-guanidine (DTG) at a final concentration of approximately 4 nM, 100 μL of various concentrations of the compounds of interest, 500 μL of the tissue suspension and 300 μL of buffer to a final assay volume of 1 mL and a final tissue concentration of approximately 8 mg/tube, corresponding to approximately 0.15 mg protein/tube. Nonspecific binding was defined by addition of a final concentration of 1 μM haloperidol to blank tubes for the [^3 H](+)pentazocine assay or by addition at a final concentration of 10 μM haloperidol to blank tubes for [^3 H] DTG assay. All tubes were incubated at 37° C. for 150 min ([^3 H](+)pentazocine) or at 25° C. for 90 min ([^3 H]DTG) before termination of the reaction by filtration over Whatman GF/B glass fiber filters that were presoaked in a solution of 0.5% polyethyleneimine for at lease 1 hr prior to use. Filters were washed with three 4 mL volumes of cold Tris-HCl buffer.
Following addition of scintillation cocktail, samples were allowed to equilibrate for at least 4 hr. The amount of bound radioactivity was determined by liquid scintillation spectrometry using a Beckman LS 5000 TA liquid scintillation counter with an efficiency for tritium of approximately 60%. The results are reported as a percent (%) inhibit ion of binding at 10 μM.
Data obtained on the compounds in the di(2-tolyl)guanidine (DTG) and d-pentazocine (+Pent) assays are expressed as a Ki value in nM. The number of determinations follow this value in parentheses.

Structures can show the parent of a compound that is named as a salt.

The values that follow come from patent US5364867A, “4-phenylpiperdine agents for treating cns disorders” (Sterling Winthrop Inc., priority 1992, dated 1994).

The term Ki denotes a measure of affinity in units of concentration, obtained from inhibition or displacement. The low end stands for higher affinity, the high end for lower affinity.

For `O=C(CCc1ccccc1)N1CCC(O)(c2ccccc2)CC1` [Example 1, 4-Phenyl-4-hyroxy-1-(3-phenylpropionyl) piperidine], the affinity corresponds to a Ki of 34400 nM.
Under `Oc1cccc(C2CCN(CCCc3ccccc3)CC2)c1` [Example 3b, 4-(3-hydroxyphenyl)-1-(3-phenylpropyl)piperidine hydrochloride] stands 0.65 nM; under `COc1cccc(C2CCN(CCCc3ccccc3)CC2)c1` [Example 3a, 4-(3-methoxyphenyl)-1-(3-phenylpropyl)piperidine hydrochloride], 2.21 nM; under `CCOC(=O)C1(c2ccccc2)CCN(CCCc2ccccc2)CC1` [Example 7, Ethyl 4-Phenyl-1-(3-phenylpropyl)-4-piperidinecarboxylate], 88.9 nM.
Consider `CCC(=O)C1(c2ccccc2)CCN(CCCc2ccccc2)CC1` [Example 5, 4-Phenyl-1-(3-phenylpropyl)-4-propionylpiperidine], for which affinity was put at a Ki of 9.1 nM.
The molecule `CCC(=O)OC1(c2ccccc2)CCN(CCC(=NO)c2ccccc2)CC1` [Example 6, 4-Phenyl-1-(3-oximino-3-phenylpropyl)-4-propionoxypiperidine] registered a Ki of 589 nM.
Under `O=C(N1CCCC1)C1(c2ccccc2)CCN(CCCc2ccccc2)CC1` [Example 2b, 4-Phenyl-1-(3-phenylpropyl)-4-(1-pyrrolidinylcarbonyl)piperidine] stands 116 nM.
Consider `O=C(O)C1(c2ccccc2)CCN(CCCc2ccccc2)CC1` [Example 2a, 4-phenyl-1-(3-phenylpropyl)-4-piperidinecarboxylic acid], for which the affinity, expressed as Ki, was 16.4 nM.
Regarding `O=C(c1ccccc1)C1(c2ccccc2)CCN(CCCc2ccccc2)CC1` [Example 4, 4-benzoyl-4-phenyl-1-(3-phenylpropyl)piperidine], the Ki was determined as 22.1 nM.
